Key:
[1] = tested on: MBT-2 murine bladder tumors; assay: Antitumor activity tests on C3H mice with implanted MBT-2 tumors; assay type: in vivo
Experimental: The compositions described hereinafter were tested against MBT-2 murine bladder tumors implanted in syngeneic C3H mice. These mice develop a tumor of 7 to 10 mm in diameter in approximately 20 days. The pharmaceutical combinations according to the invention and also the control compositions were administered intraperitoneally, for 21 days, starting from the 19th day after tumor inoculation. The change in tumor development was monitored by measuring the size of the tumors and monitoring the survival of the animals during the experiment.
The mice were randomized in groups of 18 individuals, the tumor of which is palpable (size of approximately 10 mm, after approximately 19 days of tumor development), according to the size of the tumor and the weight of the animals. For each animal, the maximum diameter of each tumor was measured with a Vernier caliper in order to determine the tumor volume. […]
The treatment with 5-FU (positive control) was administered intraperitoneally with a dose of 10 mg/kg once a day for 4 days. The mice treated with 5-FU were monitored in the same way as the other mice.
Every five days, the evolution of the tumor was monitored by various measurements: weight of the animals, tumor size (caliper rule), mortality. […]

[2] = tested on: HT-29 tumor cell line; assay: Cell proliferation and viability test (MTT / number of cells), HT-29 cell line; assay type: cell-based, human; conditions: molecule tested alone, relative to control culture
Experimental: The HT-29 tumor cell line was isolated in 1964 from a primary colonic adenocarcinoma in a person (Fogh J. et al. 1977 J. Nat. Cancer. Inst. 59: 221-6).
(§1) The tumor cell lines were cultured in monolayer at 37° C. in a humidified atmosphere (5% CO2, 95% air). The culture medium which was used is DMEM Glutamax I (Invitrogen) for the two lines, supplemented with 10% of fetal calf serum (Eurobio) and 1/10 000 IU of penicillin and streptomycin. For carrying out the experiments, the human tumor cell lines were detached from the culture flask by treatment for 10 minutes with a solution of trypsin in Hanks medium without calcium or magnesium. The cells were counted in a hemocytometer and their viability was determined using the trypan blue exclusion test.
(§2) The tumor cell lines were amplified and then seeded into 96-well microplates (MTT) or 6-well plates (cell counts) at a concentration which allowed the cells to be in the proliferation phase for the 5 days of the culture. They were incubated for 48 hours before the beginning of the treatments in the microplates containing culture medium without the test substances or the reference substances.
During phase I (test with a single active ingredient), the tumor cell lines were incubated for 5 days at 37° C. under 5% CO2 with culture medium containing one of the test substances. Each experimental condition was reproduced six times. Generally, the flasks of culture medium supplemented with serum were first of all prepared with the highest concentration of each test molecule. Each other concentration to be tested was obtained by successive dilutions in the serum-supplemented culture medium. This step was adjusted according to the particular instability or sensitivity of each drug. […]
(§3) The tumor cell lines were incubated with 100 μl (96-well plates) or 2 ml (6-well plates) of serum-supplemented culture medium containing the test substances or the reference substance. The culture medium of each culture well (supplemented with the test molecule(s)) was renewed every two days during the treatment.
(§4) Starting from the first day of contact, and every two days after the beginning of the contacting of the culture media containing the test substances and the reference substances at the various concentrations tested, the proliferation and the cell viability of the cells were evaluated. The cell viability was evaluated in two different ways: • directly, under an optical microscope by statistical counting (number of cells), and • indirectly, by colorimetric assay based on the degradation of tetrazolium salts by mitochondrial dehydrogenases (MIT test). The optical densities (OD) of each well were then read with a microplate reader set at the appropriate wavelength.
(§5) For each active ingredient, each concentration tested and each combination, three cell viability values were measured and corrected, in particular by means of the calibration ranges for the optical reading instrument.
(§6) The mean of the three cell viability measurement values was then divided by the mean of the measurements of viability carried out in parallel in a control culture free of active ingredients.

[3] = tested on: T-24 tumor cell line; assay: Cell proliferation and viability test (MTT / number of cells), T-24 cell line; assay type: cell-based, human; conditions: molecule tested alone, relative to control culture
Experimental: The T-24 tumor cell line is a transitional bladder carcinoma isolated from a person (O'Toole C M. et al. 1983 Nature 301: 429-30).
as §1, §2
During phase I (test with a single active ingredient), the tumor cell lines were incubated for 5 days at 37° C. under 5% CO2 with culture medium containing one of the test substances. Each experimental condition was reproduced six times. Generally, the flasks of culture medium supplemented with serum were first of all prepared with the highest concentration of each test molecule. Each other concentration to be tested was obtained by successive dilutions in the serum-supplemented culture medium. This step was adjusted according to the particular instability or sensitivity of each drug.
In phase II of the study (test with the combination of the two active ingredients), the same conditions for preparing the media and for culturing the cells were adhered to, and the active ingredients were combined and added simultaneously to the culture medium.
as §3, §4, §5, §6

[4] = tested on: HT-29 and T-24 cell lines; assay: Cell viability tests, observations stated jointly for the two cell lines; assay type: cell-based; conditions: human, 5 days, 4 μmol.l−1
Experimental: as §1, with “test. […]” for “test.”
as §4

Q: What does the source list for `O=c1[nH]cc(F)c(=O)[nH]1` [5-FU, 5-fluorouracil]?
A: days of implantation after which 50% of the mice are still alive ([1]; FIG. 4B, groups of 18 mice): 39 days; increase in survival compared with the control mice ([1]; controls: 50% alive after 27 days): 12 days

Q: How did the “Ratio of live HT-29 cells after 72 hours, MTT” value (shortened to “Ratio of live HT-29 cells … MTT”) ([2]; 0.1 μmol·l−1) turn out when `O=C(O)CCCCC1CCSS1` (stereo not drawn) [Lipoic acid, alpha-lipoic acid] was run?
A: 0.807

Q: What about the “Ratio of live HT-29 cells after 72 hours, Number of cells” value (“Ratio of live HT-29 cells … of cells” below) ([2]; 0.1 μmol·l−1) of the same compound?
A: 0.853

Q: And the “Ratio of live HT-29 cells … MTT” value ([2]; 1 μmol·l−1)?
A: 0.55

Q: What about the “Ratio of live HT-29 cells … of cells” value ([2]; 1 μmol·l−1) of the same compound?
A: 0.583

Q: And the “Ratio of live HT-29 cells … MTT” value ([2]; 10 μmol·l−1)?
A: 0.452

Q: What about the “Ratio of live HT-29 cells … of cells” value ([2]; 10 μmol·l−1) of the same compound?
A: 0.441

Q: And the “Ratio of live T-24 cells after 72 hours, MTT” value (“Ratio of live T-24 cells … MTT” below) ([3]; 0.1 μmol·l−1)?
A: 0.898

Q: And the “Ratio of live T-24 cells after 72 hours, Number of cells” value (“Ratio of live T-24 cells … of cells” for short) ([3]; 0.1 μmol·l−1)?
A: 0.940

Q: What about the “Ratio of live T-24 cells … MTT” value ([3]; 1 μmol·l−1) of the same compound?
A: 0.690

Q: And the “Ratio of live T-24 cells … of cells” value ([3]; 1 μmol·l−1)?
A: 0.772

Q: What about the “Ratio of live T-24 cells … MTT” value ([3]; 10 μmol·l−1) of the same compound?
A: 0.534

Q: What about the “Ratio of live T-24 cells … of cells” value ([3]; 10 μmol·l−1) of the same compound?
A: 0.601

Q: And the cell mortality [4]?
A: ≤ 50%

Q: How did the “Ratio of live HT-29 cells … MTT” value ([2]; 10 μmol·l−1) turn out when calcium hydroxycitrate was run?
A: 0.743

Q: And the “Ratio of live HT-29 cells … of cells” value ([2]; 10 μmol·l−1)?
A: 0.777

Q: And the “Ratio of live HT-29 cells … MTT” value ([2]; 100 μmol·l−1)?
A: 0.519

Q: And the “Ratio of live HT-29 cells … of cells” value ([2]; 100 μmol·l−1)?
A: 0.557

Q: What about the “Ratio of live HT-29 cells … MTT” value ([2]; 500 μmol·l−1) of the same compound?
A: 0.376

Q: What about the “Ratio of live HT-29 cells … of cells” value ([2]; 500 μmol·l−1) of the same compound?
A: 0.374

Q: And the “Ratio of live T-24 cells … MTT” value ([3]; 0.2 μmol·l−1)?
A: 0.725

Q: And the “Ratio of live T-24 cells … of cells” value ([3]; 0.2 μmol·l−1)?
A: 0.845

Q: What about the “Ratio of live T-24 cells … MTT” value ([3]; 3 μmol·l−1) of the same compound?
A: 0.488

Q: And the “Ratio of live T-24 cells … of cells” value ([3]; 3 μmol·l−1)?
A: 0.643

Q: And the “Ratio of live T-24 cells … MTT” value ([3]; 45 μmol·l−1)?
A: 0.359

Q: What about the “Ratio of live T-24 cells … of cells” value ([3]; 45 μmol·l−1) of the same compound?
A: 0.450

— US20110236506A1, “PHARMACEUTICAL ASSOCIATION CONTAINING LIPOIC ACID AND HYDROXYCITRIC ACID AS ACTIVE INGREDIENTS” (priority 2008, published 2011)
